Data taken from BigSolDB 2.1.

O=C1OC[C@H]2[C@@H]1N(Cc1ccccc1)C(=O)N2Cc1ccccc1
Conditions | solubility (mole fraction)
in DMF, 293.15 K | 0.15
in DMF, 298.15 K | 0.163
in DMF, 303.15 K | 0.179
in DMF, 308.15 K | 0.196
in DMF, 312.65 K | 0.211
in DMF, 316.05 K | 0.224
in DMF, 320.35 K | 0.242
in THF, 293.35 K | 0.074
in THF, 298.15 K | 0.0845
in THF, 303.15 K | 0.0971
in THF, 308.15 K | 0.111
in THF, 313.05 K | 0.126
in THF, 318.15 K | 0.142
in THF, 323.25 K | 0.165
in dichloromethane, 293.25 K | 0.121
in dichloromethane, 296.45 K | 0.127
in dichloromethane, 299.35 K | 0.132
in dichloromethane, 302.25 K | 0.138
in dichloromethane, 305.45 K | 0.144
in dichloromethane, 308.15 K | 0.149
in dichloromethane, 311.35 K | 0.155
in ethyl acetate, 293.65 K | 0.0221
in ethyl acetate, 298.35 K | 0.0271
in ethyl acetate, 304.15 K | 0.0332
in ethyl acetate, 308.25 K | 0.0391
in ethyl acetate, 314.15 K | 0.0487
in ethyl acetate, 318.15 K | 0.0576
in ethyl acetate, 323.75 K | 0.0716
in methanol, 287.15 K | 0.0034
in methanol, 293.15 K | 0.0049
in methanol, 298.15 K | 0.0067
in methanol, 303.25 K | 0.0088
in methanol, 308.05 K | 0.0119
in methanol, 313.45 K | 0.016
in methanol, 318.15 K | 0.0211
in toluene, 291.15 K | 0.0073
in toluene, 298.15 K | 0.0101
in toluene, 303.05 K | 0.0125
in toluene, 308.65 K | 0.0157
in toluene, 313.25 K | 0.0197
in toluene, 317.95 K | 0.0242
in toluene, 323.75 K | 0.0316
